Experimental data from ChEMBL document CHEMBL1131650, “Reactions of 1-methylbenzimidazole derivatives with m-chloroperoxybenzoic acid” (Bioorg Med Chem Lett, 1998).

Assay: Compound was evaluated for dissociation constant (pKa)
Type: physicochemical
For Cc1cc2ncn(C)c2cc1C, the pKa was 6. Cn1cnc2cc([N+](=O)[O-])c([N+](=O)[O-])cc21 gave a pKa of 1.6. Cn1cnc2ccccc21 showed a pKa of 5.6. Cn1cnc2ccc([N+](=O)[O-])cc21 showed a pKa of 3.35. With Cc1ccc2ncn(C)c2c1 the pKa was 5.7. In the case of Cc1ccc2c(c1)ncn2C, the pKa is reported as 5.65. With Cn1cnc2cc([N+](=O)[O-])ccc21 the pKa was 3.28.
